Where a name gives a salt, the structure may show the parent alone. Read-outs that look alike come from different tables or passages of the source.
Assays:
PptT [1] = target: T1, PptT (Mycobacterium tuberculosis, UniProt O33336); assay: LOPAC1280 single-point BpsA (indigoidine) end-point screen for PptT inhibitors; format: biochemical; settings: for % Activity in PptT Screen / activity at 20 µM: single concentration (20 µM per Figure S4), 0.4 µM PptT, 0.6 µM apo-BpsA, 10 µM CoA, A590 relative to no-inhibitor positive controls
T1 sequence (O33336 whole entry): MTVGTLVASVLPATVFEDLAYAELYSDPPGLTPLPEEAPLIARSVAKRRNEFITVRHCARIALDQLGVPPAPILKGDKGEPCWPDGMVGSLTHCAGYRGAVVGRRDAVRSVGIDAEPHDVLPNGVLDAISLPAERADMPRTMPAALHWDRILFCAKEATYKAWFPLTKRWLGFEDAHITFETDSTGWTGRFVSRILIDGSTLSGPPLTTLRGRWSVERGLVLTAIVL

holo-BpsA = target: T2, holo-BpsA (Streptomyces lavendulae, UniProt Q1MWN4); assay: Counter-screen against pre-activated holo-BpsA (indigoidine synthesis); format: biochemical; settings: for Inhibition of holo-BpsA: re-screen at higher concentration of 40 µM; for Inhibition of indigoidine synthesis by holo-BpsA in LOPAC1280 counter-screen: 0.6 µM holo-BpsA, no PPTase, screening concentration; for inhibition at 40 µM: read-out: Inhibition of holo-BpsA
T2 construct: made in house; host or cells: E. coli BL21(DE3) ΔentD
T2 sequence (Q1MWN4 1-1282): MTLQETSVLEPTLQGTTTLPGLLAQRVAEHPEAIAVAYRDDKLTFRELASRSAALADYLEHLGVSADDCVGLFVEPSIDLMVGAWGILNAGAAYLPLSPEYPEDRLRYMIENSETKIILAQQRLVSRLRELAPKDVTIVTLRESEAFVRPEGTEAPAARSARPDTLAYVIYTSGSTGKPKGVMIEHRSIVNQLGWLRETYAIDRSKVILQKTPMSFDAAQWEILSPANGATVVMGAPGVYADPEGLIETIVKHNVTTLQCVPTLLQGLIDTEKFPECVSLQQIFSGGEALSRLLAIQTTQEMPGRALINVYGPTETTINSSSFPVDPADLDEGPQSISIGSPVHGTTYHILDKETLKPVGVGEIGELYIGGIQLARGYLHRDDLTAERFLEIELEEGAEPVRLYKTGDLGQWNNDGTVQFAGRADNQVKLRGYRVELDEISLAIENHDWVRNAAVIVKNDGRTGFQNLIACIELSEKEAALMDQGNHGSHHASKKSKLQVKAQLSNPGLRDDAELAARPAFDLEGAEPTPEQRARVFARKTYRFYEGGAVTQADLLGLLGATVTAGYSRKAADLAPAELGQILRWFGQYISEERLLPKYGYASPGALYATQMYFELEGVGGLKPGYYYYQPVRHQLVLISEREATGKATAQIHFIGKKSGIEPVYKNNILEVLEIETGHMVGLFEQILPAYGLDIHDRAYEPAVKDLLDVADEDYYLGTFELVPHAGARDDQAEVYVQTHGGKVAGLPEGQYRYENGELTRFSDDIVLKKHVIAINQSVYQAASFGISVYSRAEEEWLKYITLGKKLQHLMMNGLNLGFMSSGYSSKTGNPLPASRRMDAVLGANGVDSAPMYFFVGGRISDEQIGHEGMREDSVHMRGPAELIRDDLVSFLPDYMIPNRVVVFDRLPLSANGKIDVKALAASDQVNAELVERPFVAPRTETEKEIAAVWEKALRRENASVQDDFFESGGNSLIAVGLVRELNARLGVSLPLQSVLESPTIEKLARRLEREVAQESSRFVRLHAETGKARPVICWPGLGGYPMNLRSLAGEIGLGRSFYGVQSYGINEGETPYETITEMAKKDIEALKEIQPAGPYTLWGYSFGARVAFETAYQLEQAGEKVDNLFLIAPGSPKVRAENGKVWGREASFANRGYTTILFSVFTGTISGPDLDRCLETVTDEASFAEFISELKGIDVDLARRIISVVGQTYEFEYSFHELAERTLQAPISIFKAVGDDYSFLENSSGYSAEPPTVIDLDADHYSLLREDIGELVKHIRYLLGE
Description: The Sigma-Aldrich LOPAC^1280 collection was first diluted to a working stock of […] per compound. To screen the collection, 88 reactions at a time were established in columns 1–11 of a standard 96 well-plate. Each was prepared from 30 µL of reaction mix comprising 50 mM Tris-Cl (pH 8.0), 0.01% (v/v) Triton-X, 10 mM MgCl2, 5 mM ATP, 5 mM L-glutamine and 10 µM CoA. Next, a CyBio liquid handler was used to pin 2 µL of compound into columns 2–11 and 2 µL of DMSO into column 1. To screen for PptT inhibitors, 10 µL of PPTase mix comprising a freshly-prepared stock of 0.4 µM PptT and 50 mM Tris-Cl (pH 8.0) was added to wells A1–C1 and columns 2–11 (see Supplementary Figure S1). To initiate indigoidine synthesis, 10 µL of 0.6 µM apo-BpsA in 50 mM Tris-Cl (pH 8.0) was added to each well. To screen for holo-BpsA inhibitors, an equivalent screening format was established only using 0.6 µM holo-BpsA and with no PPTase mix added. Each plate was then shaken at 1000 rpm for 10 s and incubated at room temperature for 1 h. Indigoidine was then resolubilised by the addition of 200 µL DMSO and incubation at 37 °C with shaking at 200 rpm for 0.5 h. A Perkin Elmer Enspire plate reader was then used to record the absorbance readings at 590 nm. The Python package Pandas was used to process the data, which was then visualised using the Python package Seaborn.

PptT [2] = target: T1, PptT; assay: BpsA end-point dose-response assay of PptT inhibition (EC50); format: biochemical; settings: for EC50: end-point assay, two-fold serial dilution from 40 µM, 0.4 µM PptT, 0.6 µM apo-BpsA, three independent replicates ± standard error
SARS-CoV-2 protease = settings: LOPAC1280 screen, FRET-based reporter; cited from earlier work
Sfp = tested on: Sfp; parameters: method as in PMID 24192555; settings: cited from earlier work
M. tuberculosis PptT = tested on: M. tuberculosis PptT; parameters: method as in PMID 24963544; settings: cited from earlier work
PptT [3] = target: T1, PptT; format: biochemical; settings: kinetic assay, serial dilution 200 µM to 0.2 µM; 0.4 µM PptT, 0.6 µM apo-BpsA
PPTases = tested on: PPTases; parameters: method as in PMID 20094656, PMID 21466506, PMID 33118808; settings: cited from earlier work

| Compound | % Activity in PptT Screen (PptT [1]) | EC50 (PptT [2]) | Hit as SARS-CoV-2 protease inhibitor (SARS-CoV-2 protease) | further results |
| --- | --- | --- | --- | --- |
| CCCCCCCCCCC/C=C\C(C)(C)/C=C\CCCC(=O)O [7,7-Dimethyl-(5z,8z)-eicosadienoic acid] | 49% |  |  | Inhibition of holo-BpsA (holo-BpsA): less than 15% |
| O=C(O)C1=CC(=C(c2ccc(O)c(C(=O)O)c2)c2ccc(O)c(C(=O)O)c2)C=CC1=O [Aurintricarboxylic acid] |  | 4.8 ± 0.9 µM | strong protease inhibitors | activity at 20 µM (PptT [1]): 32% |
| COc1ccc2c(c1)CC[C@@H]1[C@@H]2CC[C@]2(C)[C@@H](NCCCCCCN3C(=O)C=CC3=O)CC[C@@H]12 [U-73122] | 44% | 8.1 ± 0.5 µM | strong protease inhibitors |  |
| CN(C)CC/C=C1/c2ccccc2Sc2ccc(Cl)cc21 [chlorprothixene hydrochloride] |  |  |  | Registered as inhibitor of PptT in primary screen (result in words) (PptT [1]; LOPAC1280 primary screen): did not register as an inhibitor of PptT; Inhibition of indigoidine synthesis by holo-BpsA in LOPAC1280 counter-screen (holo-BpsA): inhibiting indigoidine synthesis |
| O=c1c2ccccc2[se]n1-c1ccccc1 [ebselen] |  |  |  | Inhibition of indigoidine synthesis by holo-BpsA in LOPAC1280 counter-screen (holo-BpsA): inhibiting indigoidine synthesis |
| N=C1Sc2ccccc2C2=NCCCN12 [PD 404, 182] | 35% |  | strong protease inhibitors |  |
| COc1cc(/C=C(\C#N)C(=O)c2ccc(O)c(O)c2)cc(I)c1O [I-OMe-Tyrphostin AG 538] | 40% |  |  |  |
| O=C(O)c1cc[c]([Hg][Cl])cc1 [4-chloromercuribenzoic acid] |  |  |  | Inhibition of indigoidine synthesis by holo-BpsA in LOPAC1280 counter-screen (holo-BpsA): inhibiting indigoidine synthesis |
| C[n+]1cc2c3c(ccc2c2ccc4cc5c(cc4c21)OCO5)OCO3 [Sanguinarine chloride] |  |  | strong protease inhibitors | activity at 20 µM (PptT [1]): 44%; inhibition at 40 µM (holo-BpsA): < 15%; Reported as inhibitor of Sfp (Sfp): inhibitor; Reported as inhibitor of M. tuberculosis PptT (M. tuberculosis PptT): inhibitor |
| Nc1c(S(=O)(=O)O)cc(Nc2ccc(Nc3nc(Cl)nc(Nc4cccc(S(=O)(=O)O)c4)n3)c(S(=O)(=O)O)c2)c2c1C(=O)c1ccccc1C2=O [Reactive Blue 2] |  |  |  | activity at 20 µM (PptT [1]): 38% |
| N#C/C(=C\c1ccc(O)c(O)c1)C(=O)NCCCNC(=O)/C(C#N)=C/c1ccc(O)c(O)c1 [Tyrphostin AG 537] | 35% | 5.9 ± 0.5 µM |  |  |
| Br.CCCN(CCC)C1CCc2cccc(O)c2C1 (stereo not shown) [8-hydroxy-DPAT hydrobromide] |  |  |  | Inhibitory activity on PptT in serial dilution (result in words) (PptT [2]; two-fold serial dilutions (40 µM to 0.3 µM) in PptT/apo-BpsA reaction mix): no inhibitory activity was observed |
| Br.CN=c1nc(-c2ccccc2)n(-c2ccccc2)s1 [SCH-202676 hydrobromide] | 0.7% | 5.9 ± 0.1 µM |  | Inhibition of holo-BpsA (holo-BpsA): noticeably inhibitory |
| CCN(CC)C(=S)SSC(=S)N(CC)CC [Disulfiram] |  | 6 ± 1.5 µM | strong protease inhibitors | activity at 20 µM (PptT [1]): 9%; inhibition at 40 µM (holo-BpsA): < 15% |
| CC(=O)c1c(O)c(C)c(O)c(Cc2c(O)c3c(c(C(=O)/C=C/c4ccccc4)c2O)OC(C)(C)C=C3)c1O [Rottlerin] |  |  |  | activity at 20 µM (PptT [1]): 48% |
| CC(C)(C)c1ccc(S(=O)(=O)/C=C/C#N)cc1 [Bay 11-7085] | 10% | 7.4 ± 0.4 µM | strong protease inhibitors |  |
| NC(Cc1cc(O)c(O)cc1O)C(=O)O (racemic) [6-Hydroxy-DL-DOPA] | 26% |  | strong protease inhibitors | Inhibition of holo-BpsA (holo-BpsA): less than 15% |
| Tyrphostin AG 808 | 34% |  |  |  |
| O=C1Nc2ccc(I)cc2/C1=C/c1cc(Br)c(O)c(Br)c1 [GW5074] | 43% |  |  |  |
| N#C/C(=C\c1ccc(O)c(O)c1)C(=O)c1ccc(O)c(O)c1 [Tyrphostin AG 538] | 24% | 6.4 ± 0.7 µM |  |  |
| O=Nc1ccc2oc(=O)ccc2c1 [6-Nitroso-1,2-benzopyrone] | 12% | 8.3 ± 1.7 µM | strong protease inhibitors | EC50 (PptT [3]): 4.4 ± 1.2 µM; Inhibition of holo-BpsA (holo-BpsA): less than 15%; Activity in vitro against PPTases (PPTases): activity in vitro against numerous PPTases |
| Cc1ccc(C(=O)Nc2ccc(S(=O)(=O)O)c3cc(S(=O)(=O)O)cc(S(=O)(=O)O)c23)cc1NC(=O)c1cccc(NC(=O)Nc2cccc(C(=O)Nc3cc(C(=O)Nc4ccc(S(=O)(=O)O)c5cc(S(=O)(=O)O)cc(S(=O)(=O)O)c45)ccc3C)c2)c1 [suramin hexasodium] |  |  |  | Inhibition of indigoidine synthesis by holo-BpsA in LOPAC1280 counter-screen (holo-BpsA): inhibiting indigoidine synthesis |

Source: article PMC8309046 (Pharmaceutics, 2021)
